Results on one compound are retold here after publication PMC4822253, “Inhibition of BMP and of TGFβ receptors downregulates expression of XIAP and TAK1 leading to lung cancer cell death” (Molecular Cancer, 2016).

Where two headings read alike, the source gives them in different places.

The nature of data set [1]: Pharmacokinetics in mice. Type of data set: in vivo. As to conditions: BALB/c mice; 2 mg/kg tail vein injection and 10 mg/kg p.o. study. As for the experimental part: Three mice at each time point were dosed with a 2 mg/kg tail vein injection and 10 mg/kg p.o. Blood samples were taken 0.08, 0.25, 0.5, 1, 2, 4, 8, 12, and 24 h (i.v.) and 0.25, 0.5, 1, 2, 4, 6, 8, 12, and 24 h (p.o.). Plasma half-life, clearance, and volume of distribution were then determined.

Data set [2] addresses T1, Alk2/ACVRR1 (Homo sapiens, UniProt Q04771).
T1 sequence (Q04771 21-509): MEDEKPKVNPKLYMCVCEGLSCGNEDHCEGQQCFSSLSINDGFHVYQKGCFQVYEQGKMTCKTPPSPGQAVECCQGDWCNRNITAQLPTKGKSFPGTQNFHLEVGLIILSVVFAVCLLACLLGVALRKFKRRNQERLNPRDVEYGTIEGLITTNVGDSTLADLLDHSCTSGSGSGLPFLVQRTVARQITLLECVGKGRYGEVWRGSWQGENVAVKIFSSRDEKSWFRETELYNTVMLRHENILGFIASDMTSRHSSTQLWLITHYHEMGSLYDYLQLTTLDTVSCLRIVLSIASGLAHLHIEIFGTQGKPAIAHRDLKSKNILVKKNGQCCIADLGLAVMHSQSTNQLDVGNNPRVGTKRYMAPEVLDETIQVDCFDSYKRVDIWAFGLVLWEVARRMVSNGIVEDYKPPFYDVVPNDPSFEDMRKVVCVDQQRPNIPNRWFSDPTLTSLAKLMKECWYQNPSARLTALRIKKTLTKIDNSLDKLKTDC
More on the design: purchased Reaction Biology Corporation (Malvern, PA). As to conditions: reported; read-out: IC50 for the BMP type I receptor Alk2; cited from earlier work.

In data set [3] the target is T1, Alk2/ACVRR1. As to conditions: read-out: IC50 Alk2/ACVRR1; kinase activity; ATP 10 Micromolar; 10-point, duplicate. The procedure: (§1) This was a 10-point assay starting from 100 μM to 100 nM performed in duplicate. The ATP concentration was 10 Micromolar.
Data set [4] deals with Alk6 (Homo sapiens, UniProt O00238). As to conditions: read-out: IC50 Alk6/BMPRII; kinase activity; ATP 10 Micromolar; 10-point, duplicate. The procedure:
as §1

In data set [5] the target is Alk3/BMPR1A (Homo sapiens, UniProt P36894). As to conditions: read-out: IC50 Alk3/BMPR1A; kinase activity; ATP 10 Micromolar; 10-point, duplicate. The procedure: as §1
Chain of Alk3/BMPR1A (P36894 24-532): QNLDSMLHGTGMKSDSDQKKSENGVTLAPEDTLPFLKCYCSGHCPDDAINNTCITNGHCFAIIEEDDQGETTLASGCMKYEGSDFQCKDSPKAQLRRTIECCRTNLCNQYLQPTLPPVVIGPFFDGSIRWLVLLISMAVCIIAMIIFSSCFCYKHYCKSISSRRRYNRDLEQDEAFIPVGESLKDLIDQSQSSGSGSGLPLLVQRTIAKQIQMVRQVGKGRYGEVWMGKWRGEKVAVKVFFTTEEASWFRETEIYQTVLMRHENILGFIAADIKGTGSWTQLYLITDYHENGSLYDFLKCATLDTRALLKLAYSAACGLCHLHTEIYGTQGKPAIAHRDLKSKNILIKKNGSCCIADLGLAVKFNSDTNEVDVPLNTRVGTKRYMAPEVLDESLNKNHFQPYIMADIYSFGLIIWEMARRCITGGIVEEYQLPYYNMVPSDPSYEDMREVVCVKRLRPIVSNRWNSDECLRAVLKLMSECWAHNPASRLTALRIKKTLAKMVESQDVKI
The target of data set [6] is T2, TGFbetaR2 (Homo sapiens, UniProt P37173).
T2 construct: purchased Reaction Biology Corporation (Malvern, PA)
T2 sequence (P37173 23-567): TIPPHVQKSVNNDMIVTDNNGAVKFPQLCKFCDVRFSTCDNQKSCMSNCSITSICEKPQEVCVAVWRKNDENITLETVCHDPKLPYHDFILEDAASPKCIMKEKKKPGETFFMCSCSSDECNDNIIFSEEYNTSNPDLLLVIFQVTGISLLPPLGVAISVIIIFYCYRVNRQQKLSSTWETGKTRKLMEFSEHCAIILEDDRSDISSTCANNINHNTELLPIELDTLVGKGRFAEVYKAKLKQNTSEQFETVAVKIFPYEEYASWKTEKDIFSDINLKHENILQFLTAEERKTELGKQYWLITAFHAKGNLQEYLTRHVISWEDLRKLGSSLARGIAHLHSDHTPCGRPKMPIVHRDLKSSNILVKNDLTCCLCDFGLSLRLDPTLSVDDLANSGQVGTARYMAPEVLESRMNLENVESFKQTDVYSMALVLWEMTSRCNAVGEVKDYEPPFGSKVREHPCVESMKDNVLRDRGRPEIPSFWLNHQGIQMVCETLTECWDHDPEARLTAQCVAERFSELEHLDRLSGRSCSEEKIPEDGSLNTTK
The data set can be described thus: In vitro kinase IC50. Type of data set: biochemical. As to conditions: kinase activity; ATP 10 Micromolar; 10-point, duplicate. The source says:
The ATP concentration was 10 Micromolar.

Data set [7] deals with H1299 Id1-luc tumor xenografts. The data set can be described thus: Tumor xenograft Id1 promoter-luciferase luminescence. It is filed as in vivo, nude mice. The conditions noted are these: 3 mg/kg IP; 4 h, 24 h, and 48 h following treatment; greatest effect at 24 h. The procedure:
H1299 cells were stably transfected with the Id1 promoter-luciferase reporter. Five million cells were injected subcutaneously into the flank of NCI female nude mice. After approximately 12 days the mice were anesthetized and the luciferase activity measured. Baseline luciferase activity was obtained just prior to the injection of inhibitors. Mice were injected IP with 150 mg/kg luciferin-D and after a 15-min uptake period tumors were imaged with IVIS Spectrum and analyzed using Living Image software. […] The tumors were harvested on ice, homogenized, and placed in lysis buffer.

The subject of data set [8] is H1299 Id1-luc cells. The data set can be described thus: Id1-promoter luciferase reporter assay. It is filed as cell-based. As to conditions: 1.0 μM and 2.5 μM, 48 h. As for the experimental part: H1299 cells were stably transfected with the Id1-promoter luciferase reporter. Treated cells were lysed with 1X luciferase lysis buffer (Promega). Samples were added to luciferase assay substrate (Promega) and luminsescence measured by the TD-20/20 Luminometer (Turner Designs/Turner BioSystems, Sunnyvale, CA). Control samples included luciferase assay substrate alone and luciferase assay substrate plus 1X reporter lysis buffer.
A general note: Reporter assays use an easily measured gene product as a stand-in for the process of interest.

The subject of data set [9] is lung cancer cell lines H157, A549, H1299, H727, U1752. The data set can be described thus: Cell counts in panel of lung cancer cell lines. The conditions noted are these: 1 μM; 7 days; percent of vehicle control. Type of data set: cell-based. The procedure:
Cells were plated into 6 well plates at 10^5 cells per well and treated with 1 μM DMSO or antagonist for 7 days. The cells were detached with trypsin, stained with trypan blue, and the number of live cells counted using a hemocytometer.
Additional file 1: Figure S1. […] Data is depicted as percent of vehicle control. Experiments were performed 3 times. (TIF 749 kb) Additional file 2: Figure S2. […] Non-specific band from the same Western blot was used as a loading control. Experiments performed at least 3 times. (TIF 2680 kb) Additional file 3: Figure S3. Pharmacokinetics of DMH2. […] (TIF 1187 kb) Additional file 4: Figure S4. […] (A-B) Western blot of tumor xenografts treated with BMP inhibitors for 24 h and 9 days. […] (E-G) Data depict the mean as the percent of control. Experiments were performed at least 3 times. (TIF 9413 kb) Additional file 5: Figure S5. […] The data represents the mean of at least 4 experiments. (TIF 359 kb) Additional file 6: Figure S6. […] The studies represent the mean of at least 3 independent experiments. […] (TIF 2411 kb)

Data set [10] in a line: Plasma protein binding by equilibrium dialysis. Type of data set: in vitro ADME. As to conditions: mouse plasma. (In equilibrium dialysis free small molecules cross a membrane that holds back macromolecules.)

Chain of Alk6 (O00238 149-502 limits assumed): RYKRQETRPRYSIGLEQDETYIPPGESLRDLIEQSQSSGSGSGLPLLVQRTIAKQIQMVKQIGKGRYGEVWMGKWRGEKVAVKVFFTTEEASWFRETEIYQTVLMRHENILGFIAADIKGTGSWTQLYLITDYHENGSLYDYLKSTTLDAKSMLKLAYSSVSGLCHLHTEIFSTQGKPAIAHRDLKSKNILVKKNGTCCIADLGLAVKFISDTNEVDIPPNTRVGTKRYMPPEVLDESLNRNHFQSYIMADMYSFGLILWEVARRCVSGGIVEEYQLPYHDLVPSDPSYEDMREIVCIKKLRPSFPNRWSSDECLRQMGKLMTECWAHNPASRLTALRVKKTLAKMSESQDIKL

`c1ccc2c(-c3cnn4cc(-c5ccc(OCCN6CCOCC6)cc5)cnc34)ccnc2c1` [DMH2]: in data set [1], the elimination half-life came out at 57 min. In addition, the systemic plasma clearance in [1] is 68.45 mL/min/kg. The IC50 is 42.8 nM in [2]; 23 nM in [3]; 43 nM in [4]; 92 nM in data set [5]; 193 nM in data set [6]. Also, the “tumor luminescence (Id1 promoter) compared to baseline” value in data set [7] is “increased”. In addition, in [8], the “suppression of Id1 promoter activity in comparison to DMH1” value was “significantly greater suppression”. The “growth (cell counts)” value in data set [9] was “inhibited growth in all of the cell lines”. In [10], the “percent binding plasma proteins” value worked out at 98.2 % +/−1.5.
